# Tested on: human monocytic cell line U937
# Test: Human U937 cellular necroptosis assay (TNFalpha + z-VAD-FMK, Cell Titer-Glo viability)
# Type: cell-based
# Settings: Homo sapiens, U-937, 22 h, U937 cells, 25 ng/mL human TNFalpha + 25 μM z-VAD-FMK, read-out: hU937 Avg IC50
# Description: The human monocytic cell line U937 (CRL-1593.2) was purchased from ATCC. The cells were routinely maintained in RPMI-1640 Medium (Gibco, Catalog #11875-093) supplemented with 10% heat inactivated fetal bovine serum (Gibco, Catalog #16140-071), 100 units/mL penicillin and 100 μg/mL streptomycin (Gibco, Catalog #15140-122), in a humidified incubator (37° C., 5% CO2). For the assay, cells were resuspended in RPMI-1640 phenol red free Media (Gibco, Catalog #11835-030) supplemented with 10% fetal bovine serum (Sigma, Catalog #F2442), 100 units/mL penicillin and 100 ug/mL streptomycin. Cells were stimulated with 25 ng/mL human TNFalpha (Cell Sciences, Catalog #CSI15659B) and 25 μM z-VAD-FMK (R&D Systems, Catalog #FMK001) followed by seeding 5000 cells per well in a volume of 40 μL to a white, CulturPlate-384 (Perkin Elmer, Catalog #6007680). Stock solutions of the test compounds were prepared in 100% DMSO (Sigma, Catalog #D2650) and serially diluted 1:3 using 100% DMSO. Compounds were additionally diluted 1:40 in assay medium, and 10 μL/well was transferred to the plate. Following the compound addition the plate was incubated at 37° C. and 5% CO2 for 22 h. After 22 h, viability was assessed with the addition of 20 μL of Cell Titer-Glo 2.0 (Promega, Catalog #G9243). The tissue culture plate was shaken on an orbital shaker at 300 RPM for 15 minutes at rt in the dark. Luminescence was measured using a PerkinElmer Envision™ plate reader. IC50 values were calculated using a four-parameter logistic curve fit using Genedata Screener software. Results are shown below in Table 3, where the average value across multiple runs is given.
row,Structure (SMILES),IC50
1,"Cc1ccc(C2CC=NN2C(=O)C23CC(COc4ccc(C#N)cn4)(C2)C3)c(F)c1 (stereo not drawn) [Example 271, 6-((3-(5-(2-fluoro-4-methyl-phenyl)-4,5-dihydro-1H-pyrazole-1-carbonyl)bicyclo-[1.1.1]pentan-1-yl)methoxy)-nicotinonitrile]",20 nM
2,"Cc1ccc(C2CC=NN2C(=O)C23CC(COc4ccc(C#N)cn4)(C2)C3)cc1F (stereo not drawn) [Example 272, 6-((3-(5-(3-fluoro-4-methyl-phenyl)-4,5-dihydro-1H-pyrazole-1-carbonyl)bicyclo-[1.1.1]pentan-1-yl)-methoxy)nicotinonitrile]",24 nM
3,"Cc1ccc(C2CC=NN2C(=O)C23CC(COc4ccc(C#N)cn4)(C2)C3)cc1 (stereo not drawn) [Example 273, 6-((3-(5-(p-tolyl)-4,5-dihydro-1H-pyrazole-1-carbonyl)-bicyclo[1.1.1]pentan-1-yl)-methoxy)nicotinonitrile]",30 nM
4,"N#Cc1cnc(OCC23CC(C(=O)N4N=CCC4c4cnccn4)(C2)C3)cn1 (stereo not drawn) [Example 274, 5-((3-(5-(pyrazin-2-yl)-4,5-dihydro-1H-pyrazole-1-carbonyl)bicyclo[1.1.1]pentan-1-yl)methoxy)pyrazine-2-carbonitrile]",61 nM
5,"N#Cc1ccc(OCC23CC(C(=O)N4N=CCC4c4cc(F)c(Br)c(F)c4)(C2)C3)nc1 (stereo not drawn) [Example 275, 6-((3-(5-(4-bromo-3,5-difluorophenyl)-4,5-dihydro-1H-pyrazole-1-carbonyl)-bicyclo[1.1.1]pentan-1-yl)-methoxy)nicotinonitrile]",73 nM
6,"N#Cc1ccc(OCC23CC(C(=O)N4N=CCC4c4ccccc4)(C2)C3)nc1 (stereo not drawn) [Example 276, 6-((3-(5-phenyl-4,5-dihydro-1H-pyrazole-1-carbonyl)-bicyclo[1.1.1]pentan-1-yl)-methoxy)nicotinonitrile]",76 nM
7,"N#Cc1cnc(OCC23CC(C(=O)N4N=CCC4c4cncc(F)c4)(C2)C3)cn1 (stereo not drawn) [Example 277, 5-((3-(5-(5-fluoropyridin-3-yl)-4,5-dihydro-1H-pyrazole-1-carbonyl)bicyclo[1.1.1]-pentan-1-yl)methoxy)pyrazine-2-carbonitrile]",81 nM
8,"Cc1ccc(C2CC=NN2C(=O)C23CC(COc4cnc(C#N)cn4)(C2)C3)nc1 (stereo not drawn) [Example 278, 5-((3-(5-(5-methylpyridin-2-yl)-4,5-dihydro-1H-pyrazole-1-carbonyl)bicyclo[1.1.1]-pentan-1-yl)methoxy)pyrazine-2-carbonitrile]",97 nM
9,"Cc1cccc(C2CC=NN2C(=O)C23CC(COc4ccc(C#N)cn4)(C2)C3)c1 (stereo not drawn) [Example 279, 6-((3-(5-(m-tolyl)-4,5-dihydro-1H-pyrazole-1-carbonyl)-bicyclo[1.1.1]pentan-1-yl)-methoxy)nicotinonitrile]",104 nM
10,"N#Cc1ccc(OCC23CC(C(=O)N4N=CCC4c4cnccn4)(C2)C3)nc1 (stereo not drawn) [Example 280, 6-((3-(5-(pyrazin-2-yl)-4,5-dihydro-1H-pyrazole-1-carbonyl)bicyclo[1.1.1]pentan-1-yl)methoxy)nicotinonitrile]",106 nM
11,"N#Cc1ccc(OCC23CC(C(=O)N4N=CCC4c4cccc(C#N)c4)(C2)C3)nc1 (stereo not drawn) [Example 281, 6-((3-(5-(3-cyanophenyl)-4,5-dihydro-1H-pyrazole-1-carbonyl)bicyclo[1.1.1]pentan-1-yl)methoxy)nicotinonitrile]",148 nM
12,"Cc1cnc(C2CC=NN2C(=O)C23CC(COc4ccc(C#N)cn4)(C2)C3)cn1 (stereo not drawn) [Example 282, 6-((3-(5-(5-methylpyrazin-2-yl)-4,5-dihydro-1H-pyrazole-1-carbonyl)bicyclo[1.1.1]-pentan-1-yl)methoxy)-nicotinonitrile]",153 nM
13,N#Cc1cnc(OCC23CC(C(=O)N4CC(F)CC4c4cccc(F)c4)(C2)C3)cn1 (stereo not drawn) [Example 283],160 nM
14,"N#Cc1cncc(C2CC=NN2C(=O)C23CC(COc4cnc(C#N)cn4)(C2)C3)c1 (stereo not drawn) [Example 284, 5-((3-(5-(5-cyanopyridin-3-yl)-4,5-dihydro-1H-pyrazole-1-carbonyl)bicyclo[1.1.1]pentan-1-yl)methoxy)pyrazine-2-carbonitrile]",161 nM
15,"N#Cc1ccc(OCC23CC(C(=O)N4N=CCC4c4cncc(F)c4)(C2)C3)nc1 (stereo not drawn) [Example 285, 6-((3-(5-(5-fluoropyridin-3-yl)-4,5-dihydro-1H-pyrazole-1-carbonyl)bicyclo[1.1.1]-pentan-1-yl)methoxy)-nicotinonitrile]",164 nM
16,"N#Cc1ccc(OCC23CC(C(=O)N4N=CCC4c4cncc(C#N)c4)(C2)C3)nc1 (stereo not drawn) [Example 286, 5-(1-(3-(((5-cyanopyridin-2-yl)oxy)methyl)bicyclo[1.1.1]-pentane-1-carbonyl)-4,5-dihydro-1H-pyrazol-5-yl)-nicotinonitrile]",218 nM
17,"N#Cc1ccc(OCC23CC(C(=O)N4CC(F)CC4c4cccc(F)c4)(C2)C3)nc1 (stereo not drawn) [Example 288, 6-((3-(4-fluoro-2-(3-fluoro-phenyl)pyrrolidine-1-carbonyl)bicyclo[1.1.1]pentan-1-yl)methoxy)nicotinonitrile]",276 nM
18,"Cc1ccc(C2CC=NN2C(=O)C23CC(COc4cnc(C#N)cn4)(C2)C3)cn1 (stereo not drawn) [Example 289, 5-((3-(5-(6-methylpyridin-3-yl)-4,5-dihydro-1H-pyrazole-1-carbonyl)bicyclo[1.1.1]-pentan-1-yl)methoxy)pyrazine-2-carbonitrile]",281 nM
19,"N#Cc1ccc(OCC23CC(C(=O)N4N=CCC4c4cccc(Cl)c4Cl)(C2)C3)nc1 (stereo not drawn) [Example 290, 6-((3-(5-(2,3-dichlorophenyl)-4,5-dihydro-1H-pyrazole-1-carbonyl)bicyclo[1.1.1]pentan-1-yl)methoxy)nicotinonitrile]",445 nM
20,"N#Cc1ccc(OCC23CC(C(=O)N4N=CCC4c4ncc(F)cc4F)(C2)C3)nc1 (stereo not drawn) [Example 291, 6-((3-(5-(3,5-difluoropyridin-2-yl)-4,5-dihydro-1H-pyrazole-1-carbonyl)bicyclo-[1.1.1]pentan-1-yl)methoxy)-nicotinonitrile]",620 nM
21,"C[C@@H](c1c(F)cccc1F)N(C)C(=O)C12CC(COc3cnc(C#N)cn3)(C1)C2 [Example 292, (S)-3-(((5-cyanopyrazin-2-yl)oxy)methyl)-N-(1-(2,6-difluorophenyl)ethyl)-N-methylbicyclo[1.1.1]pentane-1-carboxamide]",956 nM
22,"N#Cc1cnc(OCC23CC(C(=O)NCc4c(F)cccc4F)(C2)C3)cn1 [Example 294, 3-(((5-cyanopyrazin-2-yl)oxy)-methyl)-N-(2,6-difluoro-benzyl)bicyclo[1.1.1]pentane-1-carboxamide]",5610 nM
23,"C[C@@H](c1ccccc1F)N(C)C(=O)C12CC(COc3cnc(C#N)cn3)(C1)C2 [Example 295, (S)-3-(((5-cyanopyrazin-2-yl)oxy)methyl)-N-(1-(2-fluoro-phenyl)ethyl)-N-methyl-bicyclo[1.1.1]pentane-1-carboxamide]",5680 nM
24,"N#Cc1cnc(OCC23CC(C(=O)NCc4cccc(F)c4F)(C2)C3)cn1 [Example 296, 3-(((5-cyanopyrazin-2-yl)-oxy)methyl)-N-(2,3-difluoro-benzyl)bicyclo[1.1.1]pentane-1-carboxamide]",5850 nM
25,"C[C@H](NC(=O)C12CC(COc3cnc(C#N)cn3)(C1)C2)c1cc(F)ccc1F [Example 297, (S)-3-(((5-cyanopyrazin-2-yl)-oxy)methyl)-N-(1-(2,5-difluorophenyl)ethyl)bicyclo-[1.1.1]pentane-1-carboxamide]",6060 nM
26,"N#Cc1cnc(OCC23CC(C(=O)NCc4cc(F)ccc4F)(C2)C3)cn1 [Example 298, 3-(((5-cyanopyrazin-2-yl)oxy)-methyl)-N-(2,5-difluoro-benzyl)bicyclo[1.1.1]pentane-1-carboxamide]",6700 nM
27,"CN(C(=O)C12CC(Cn3ncc4cc(C#N)ccc43)(C1)C2)c1ccccc1Cl [Example 299, N-(2-chlorophenyl)-3-((5-cyano-1H-indazol-1-yl)-methyl)-N-methylbicyclo-[1.1.1]pentane-1-carboxamide]",7010 nM
28,"CC(c1cc(F)ccc1F)N(C)C(=O)C12CC(COc3cnc(C#N)cn3)(C1)C2 (stereo not drawn) [Example 301, 3-(((5-cyanopyrazin-2-yl)oxy)-methyl)-N-(1-(2,5-difluoro-phenyl)ethyl)-N-methyl-bicyclo[1.1.1]pentane-1-carboxamide]",7740 nM

# Same assay, conditions: U937 cells, 25 ng/mL human TNFalpha + 25 μM z-VAD-FMK, 22 h; read-out: hU937 Avg IC50
row,Structure (SMILES),IC50
1,"N#Cc1cnc(OCC23CC(C(=O)NCc4ccccc4F)(C2)C3)cn1 [Example 293, 3-(((5-cyanopyrazin-2-yl)oxy)-methyl)-N-(2-fluorobenzyl)-bicyclo[1.1.1]pentane-1-carboxamide]",1500 nM
2,"N#Cc1cnc(OCC23CC(C(=O)NCc4ccccc4F)(C2)C3)cn1 [Example 300, 3-(((5-cyanopyrazin-2-yl)-oxy)methyl)-N-(2-fluoro-benzyl)bicyclo[1.1.1]pentane-1-carboxamide]",7420 nM
